ChEMBL document CHEMBL1133273, “Synthesis and evaluation of quinoline carboxyguanidines as antidiabetic agents” (2000)

What was measured:
Assay type in all cases: functional
Rattus norvegicus [1] = assay: Percent glycaemia evolution at 20 mg/kg at 2 hr after the last administration for 4 days chronic treatment (J4) in Wistar rats
Rattus norvegicus [2] = assay: Percent glycaemia evolution at 20 mg/kg at 2 hr after a sharp administration (J1) in Wistar rats
Rattus norvegicus [3] = assay: Percent glycaemia evolution at 200 mg/kg at 2 hr after a sharp administration (J1) in Wistar rats
Rattus norvegicus [4] = assay: Percent glycaemia evolution at 200 mg/kg at 2 hr after the last administration for 4 days chronic treatment (J4) in Wistar rats
Rattus norvegicus [5] = assay: Number of deaths at 200 mg/kg at 2 hr after the last administration for 4 days chronic treatment (J4) in Wistar rats; 4 death/5
Rattus norvegicus [6] = assay: Number of deaths at 20 mg/kg at 2 hr after the last administration for 4 days chronic treatment (J4) in Wistar rats; 1 death/5

Row | SMILES | Glycaemia evolution (Rattus norvegicus [1]) [%] | Glycaemia evolution (Rattus norvegicus [2]) [%] | Glycaemia evolution (Rattus norvegicus [3]) [%] | Glycaemia evolution (Rattus norvegicus [4]) [%] | No. of deaths (Rattus norvegicus [5]) | No. of deaths (Rattus norvegicus [6])
1 | CCOc1cc(C(=O)N=C(N)N)nc2cc(OC)ccc12 | -2 | 2 | 6 | 2 |  | 
2 | CCOc1cc(C(=O)Nc2nn[nH]n2)nc2ccc(F)cc12 | 4 | 8 | 9 | -6 |  | 
3 | CCOc1cc(C(=O)NNC(N)=O)nc2ccc(F)cc12 | -8 | 3 | 8 | -3 |  | 
4 | NC(=O)NNC(=O)c1cc(O)c2cc(F)ccc2n1 | -16 | -6 | -7 | -14 |  | 
5 | CCn1cc(C(=O)N=C(N)N)c(=O)c2ccc(C)nc21.Cl | -11 | 1 | -4 | -21 |  | 
6 | COc1ccc2ncc(C(=O)N=C(N)N)c(O)c2c1.Cl | 3 | 5 | -8 | 3 |  | 
7 | CCOc1cc(C(=O)N=C(N)N)nc2cc3c(cc12)OCO3.Cl | -6 | 1 | -4 | -7 |  | 
8 | Cl.N=C(N)NC(=O)c1cc(Cl)c2cc(F)ccc2n1 |  | 19 | 58 |  | 4 | 1
9 | CCOc1cc(C(=O)NN=C(N)N)nc2ccc(F)cc12.Cl | -3 | 6 | -4 | -14 |  | 
10 | Cl.N=C(N)NNC(=O)c1cc(O)c2cc(F)ccc2n1 | 4 | 8 | 8 | -2 |  | 
11 | CCN1CC(C(=O)N/N=C(\N)N=C(N)N)C(=O)c2cc(OC)ccc21.Cl (stereo not given) | -2 | -3 | 2 | -5 |  | 
12 | CCn1cc(C(=O)NN=C(N)N)c(=O)c2cc(OC)ccc21.Cl | -12 | -10 | 6 | -6 |  | 
13 | Cl.N=C(N)NC(=O)c1cc(O)c2cc(F)ccc2n1 | -15 | -5 | -7 | -14 |  | 
14 | CCOc1cc(C(=O)N=C(N)N)nc2ccc(F)cc12.Cl | -10 | -8 | -5 | -30 |  | 
15 | CCn1cc(C(=O)N=C(N)N)c(=O)c2cc(OC)ccc21.Cl | 0 | 0 | 0 | -9 |  | 
